Laboratory results as given in patent EP0084757A1, “Trisubstituted diaza derivatives” (CIBA-GEIGY AG, priority 1982, dated 1983).
≈ marks a conversion by molar mass, not a printed value.

Tested on: mit Crotonöl induzierten Rattenohroedems
Experiment: Inhibition of croton oil-induced rat ear oedema (method of Tonelli and Thibault)
Assay type: in vivo, Normalratte
Conditions: inhibition of croton oil-induced ear oedema in the normal rat; local application
Procedure: Diese Eigenschaft lässt sich beispielsweise nach der von G. Tonelli, L. Thibault, Endocrinology 77, 625 (1965) entwickelten Methode durch Hemmung des mit Crotonöl induzierten Rattenohroedems bei der Normalratte im Dosisbereich von etwa 1 bis etwa 100 mg/ml nachweisen.

COC(Cc1nc(-c2ccccc2)c(-c2cccnc2)[nH]1)OC [2-[4(5)-Phenyl-5(4)-(3-pyridyl)-imidazol-2-yl]-acetaldehyd-dimethylacetal]
ED50-Wert: 18 mg/mL (≈ 58.2 mM)
